Among the data in patent US7709475B2, “Selective inhibitors against Cdk4 and Cdk6 having aminothiazole skeleton” (Banyu Pharmaceutical Co., Ltd., priority 2004, dated 2010) are IC50 values, retold here.

What all share (assay type): biochemical
One assay addresses T1, cyclin D2-Cdk4 (Homo sapiens, UniProt P11802).
T1 construct: made in house; host or cells: insect cell Sf9 (baculovirus)
The assay is described as follows: Cdk4 inhibitory action: cyclin D2-Cdk4 kinase activity, 33P-ATP, RB peptide substrate. Particulars: cyclin D2-Cdk4, 50 μM ATP. An excerpt:
First, the cDNA of Cdk4, and the cDNA of a fusion protein of cyclin D2, an activating factor of Cdk4, and glutathione S-transferase, were integrated into a baculovirus expression vector to prepare a recombinant baculovirus. This was co-transfected into insect cell Sf9 to express an active complex of the cyclin D2/glutathione S-transferase fusion protein-Cdk4 at a high level. The cells were recovered and solubilized, then the active complex was adsorbed onto Glutathione Sepharose, and a cyclin D2-Cdk4 complex was recovered using Precision Protease and was purified by HPLC column chromatography [EMBO J., Vol. 15, 7060-7069 (1996)].
For the measurement of the activity of cyclin D2-Cdk4, a synthetic peptide (Arg-Pro-Pro-Thr-Leu-Ser-Pro-Ile-Pro-His-Ile-Pro-Arg) corresponding to amino acid residue No. 775-787 of RB protein was used as the substrate [EMBO J., Vol. 15, 7060-7069 (1996)].
The reaction was performed by partially modifying the method of Kitagawa et al. [Oncogene, Vol. 7, 1067-1074 (1992)]. The volume of the reaction solution was 21.1 μL, and the composition of the reaction buffer (R buffer) was 20 mM Tris-hydrochloric acid buffer (pH 7.4)/10 mM magnesium chloride/4.5 mM 2-mercaptoethanol/1 mM ethylene glycol bis(β-aminoethyl ether)-N,N,N′,N′-tetraacetic acid (EGTA). To this reaction buffer, purified cyclin D2-Cdk4, 100 μM of the substrate peptide, 50 μM of non-labeled adenosine triphosphate (ATP), and 1 μCi of [γ-33P]-labeled ATP (2000 to 4000 Ci/mmole) were added to react at 30° C. for 45 minutes. Then, 10 μL of 350 mM phosphate buffer was added to the reaction system to terminate the reaction. The substrate peptide was adsorbed onto P81 paper filter on a 96-well plate, and then washed several times with 75 mM phosphate buffer. The radioactivity of the substrate peptide was measured with a liquid scintillation counter. The [γ-33P]-labeled ATP was purchased from Daiichi Pure Chemicals Co., Ltd.
Addition of the test compound to the reaction system was carried out by first preparing a dilution series of solutions of the compound in dimethylsulfoxide (DMSO), and adding 1.1 μL of the dilutions. A control was provided by adding 1.1 μL of DMSO to the reaction system.
A representative compound of the compounds according to the invention was selected, and the IC50 value of this compound for the cyclin D2-Cdk4 activity was determined.

In a further assay the target is T2, cyclin A-Cdk2 (Homo sapiens, UniProt P24941).
T2 construct: made in house; host or cells: insect cell Sf9 (baculovirus)
In words: Cdk2 inhibitory action: cyclin A-Cdk2 kinase activity. Particulars: cyclin A-Cdk2, 50 μM ATP. An excerpt: In the same manner as in the case of cyclin D2-Cdk4, the cDNA of Cdk2, and the cDNA of a fusion protein of cyclin A, an activating factor of Cdk2, and glutathione S-transferase, were integrated into a baculovirus expression vector to prepare a recombinant baculovirus. This was co-transfected into insect cell Sf9 to express an active complex of the cyclin A/glutathione S-transferase fusion protein-Cdk2 at a high level. The cells were recovered and solubilized, then the active complex was adsorbed onto Glutathione Sepharose, and a cyclin A-Cdk2 complex was recovered using Precision Protease and was purified by HPLC column chromatography.
For the measurement of the activity of cyclin A-Cdk2, a synthetic peptide (Ala-Lys-Ala-Lys-Lys-Thr-Pro-Lys-Lys-Ala-Lys-Lys) was used as the substrate.
(§1) The reaction was performed by partially modifying the method of Kitagawa et al. [Oncogene, Vol. 7, 1067-1074 (1992)]. The volume of the reaction solution was 21.1 μL, and to the R buffer, purified cyclin A-Cdk2, 0.01 mg/mL of the substrate peptide, 50 μM of non-labeled adenosine triphosphate (ATP), and 1 μCi of [γ-33P]-labeled ATP (2000 to 4000 Ci/mmole) were added to react at 30° C. for 30 minutes. Then, 10 μL of 350 mM phosphate buffer was added to the reaction system to terminate the reaction. The substrate peptide was adsorbed onto P81 paper filter on a 96-well plate, and then washed several times with 75 mM phosphate buffer. The radioactivity of the substrate peptide was measured with a liquid scintillation counter.
(§2) Addition of the compound according to the invention to the reaction system was carried out by first preparing a dilution series of solutions of the compound in dimethylsulfoxide (DMSO), and adding 1.1 μL of the dilutions. A control was provided by adding 1.1 μL of DMSO to the reaction system.
A representative compound of the compounds according to the invention was selected, and the IC50 value of this compound for the cyclin A-Cdk2 activity was determined.

For a further assay, the target named is T3, cyclin H-Cdk7 (Homo sapiens, UniProt P50613).
T3 construct: made in house; host or cells: insect cell Sf9 (baculovirus)
T3 sequence (P50613 whole entry): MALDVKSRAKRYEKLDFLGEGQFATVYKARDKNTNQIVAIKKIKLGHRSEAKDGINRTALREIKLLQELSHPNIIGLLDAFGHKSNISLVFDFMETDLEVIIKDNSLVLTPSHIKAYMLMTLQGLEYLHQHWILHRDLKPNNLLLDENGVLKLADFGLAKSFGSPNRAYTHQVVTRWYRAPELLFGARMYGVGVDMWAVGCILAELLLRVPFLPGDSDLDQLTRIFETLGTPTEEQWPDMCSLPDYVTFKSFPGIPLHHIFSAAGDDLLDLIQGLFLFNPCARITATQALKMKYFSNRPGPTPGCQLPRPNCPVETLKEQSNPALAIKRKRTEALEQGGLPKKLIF
T3 sequence (P51946 whole entry partner): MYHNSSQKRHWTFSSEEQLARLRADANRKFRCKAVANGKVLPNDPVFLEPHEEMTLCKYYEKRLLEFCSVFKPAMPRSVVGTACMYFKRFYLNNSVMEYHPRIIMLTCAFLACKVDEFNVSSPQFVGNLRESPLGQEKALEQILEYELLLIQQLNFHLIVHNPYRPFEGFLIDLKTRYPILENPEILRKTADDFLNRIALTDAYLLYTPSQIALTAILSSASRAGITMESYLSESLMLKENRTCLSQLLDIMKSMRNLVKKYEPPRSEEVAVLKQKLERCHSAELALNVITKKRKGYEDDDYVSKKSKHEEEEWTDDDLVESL
In words: Cdk7 inhibitory action: cyclin H-Cdk7 kinase activity. The conditions noted are these: cyclin H-Cdk7, 50 μM ATP.
Excerpt: The cDNA of Cdk7, and the cDNA of a fusion protein of cyclin H, an activating factor of Cdk7, and glutathione S-transferase, were integrated into a baculovirus expression vector to prepare a recombinant baculovirus. This was co-transfected into insect cell Sf9 to express an active complex of the cyclin H/glutathione S-transferase fusion protein-Cdk7 at a high level. The cells were recovered and solubilized, then the active complex was adsorbed onto Glutathione Sepharose, and a cyclin H-Cdk7 active complex was recovered using Precision Protease.
For the measurement of the activity of cyclin H-Cdk7, a synthetic peptide ([…] was used as the substrate.
as §1, with “cyclin H-Cdk7, 25 μM” for “cyclin A-Cdk2, 0.01 mg/mL”, “for 45” for “for 30”
as §2
A representative compound of the compounds according to the invention was selected, and the IC50 value of this compound for the cyclin H-Cdk7 activity was determined.

T1 sequence (P11802 whole entry): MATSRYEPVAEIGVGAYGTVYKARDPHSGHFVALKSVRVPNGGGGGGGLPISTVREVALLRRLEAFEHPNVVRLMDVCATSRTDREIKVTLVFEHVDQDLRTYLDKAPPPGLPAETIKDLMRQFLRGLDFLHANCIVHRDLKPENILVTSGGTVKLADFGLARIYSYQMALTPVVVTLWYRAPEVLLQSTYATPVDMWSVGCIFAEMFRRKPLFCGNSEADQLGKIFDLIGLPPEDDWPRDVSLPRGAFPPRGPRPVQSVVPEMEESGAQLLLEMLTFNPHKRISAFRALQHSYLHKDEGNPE
T1 sequence (P30279 whole entry partner): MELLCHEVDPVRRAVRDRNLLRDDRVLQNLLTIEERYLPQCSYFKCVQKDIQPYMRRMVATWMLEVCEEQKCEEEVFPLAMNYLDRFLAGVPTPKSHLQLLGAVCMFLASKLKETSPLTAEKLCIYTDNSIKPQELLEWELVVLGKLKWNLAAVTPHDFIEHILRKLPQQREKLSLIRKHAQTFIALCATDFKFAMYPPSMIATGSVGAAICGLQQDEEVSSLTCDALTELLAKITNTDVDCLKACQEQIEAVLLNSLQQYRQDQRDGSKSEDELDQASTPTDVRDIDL

As for `Cc1cc(-c2cnc(Nc3cnc(CN4CCC(N(C)C)C4)cn3)s2)nc(SC2CCCCC2)n1` (centres unmarked) [Example 94, 5-[2-(cyclohexylthio)-6-methyl-4-pyrimidinyl]-2-[5-(3-dimethylamino-1-pyrrolidinyl)methyl-2-pyrazinyl]amino-1,3-thiazole], the IC50 against cyclin D2-Cdk4 worked out at 3.9 nM; against cyclin A-Cdk2, 1700 nM; against cyclin H-Cdk7, 91 nM.
The like results for `Cc1cc(-c2cnc(Nc3cnc(CN4CCCC4)cn3)s2)nc(SC2CCCCC2)n1` [Example 93, 5-[2-(cyclohexylthio)-6-methyl-4-pyrimidinyl]-2-[5-(1-pyrrolidinyl)methyl-2-pyrazinyl]amino-1,3-thiazole] were, in that order, 4.2 nM, 480 nM and 140 nM.
Regarding `CC(=O)N1CCN(Cc2ccc(Nc3ncc(-c4cc(C)nc(OC5CCCCC5)n4)s3)nc2)CC1` [Example 125, 5-[2-(cyclohexyloxy)-6-methyl-4-pyrimidinyl]-2-[5-(4-acetyl-1-piperazinyl)methyl-2-pyridyl]amino-1,3-thiazole], the half-maximal inhibitory concentration (IC50) came out at 9 nM on cyclin D2-Cdk4, 1600 nM against cyclin A-Cdk2 and 370 nM at cyclin H-Cdk7.
In the case of `Cc1cc(-c2cnc(Nc3cnc(CNCCO)cn3)s2)nc(SC2CCCCC2)n1` [Example 99, 5-[2-(cyclohexylthio)-6-methyl-4-pyrimidinyl]-2-[5-(2-hydroxyethylamino)methyl-2-pyrazinyl]amino-1,3-thiazole], the 50% inhibitory concentration (IC50) against cyclin D2-Cdk4 was found to be 6 nM; at cyclin H-Cdk7, 120 nM.
Take `Cc1cc(-c2cnc(Nc3cnc(CN4CCC(N(C)C)C4)cn3)s2)nc(OC2CCCCC2)n1` (centres unmarked) [Example 13, 5-[2-(cyclohexyloxy)-6-methyl-4-pyrimidinyl]-2-[5-(3-dimethylamino-1-pyrrolidinyl)methyl-2-pyrazinyl]amino-1,3-thiazole]: the half-maximal inhibitory concentration (IC50) on cyclin D2-Cdk4 is 6 nM; at cyclin A-Cdk2, 850 nM; at cyclin H-Cdk7 it was 370 nM.
The matching figures for `Cc1cc(-c2cnc(Nc3cnc(CN4CCN(C)CC4)cn3)s2)nc(OC2CCCCC2)n1` [Example 1, 5-[2-(cyclohexyloxy)-6-methyl-4-pyrimidinyl]-2-[5-(4-methyl-1-piperazinyl)methyl-2-pyrazinyl]amino-1,3-thiazole]: 9.2 nM, 1700 nM and 530 nM.
On to `Cc1cc(-c2cnc(Nc3cnc(CN4CCN(C)CC4)cn3)s2)nc(NC2CCCCC2)n1` [Example 55, 5-[2-(cyclohexylamino)-6-methyl-4-pyrimidinyl]-2-[5-(4-methyl-1-piperazinyl)methyl-2-pyrazinyl]amino-1,3-thiazole], for which the values for the half-maximal inhibitory concentration (IC50) against cyclin D2-Cdk4, against cyclin A-Cdk2 and at cyclin H-Cdk7 were 3.8 nM, 1900 nM and 460 nM, respectively.
`Cc1cc(-c2cnc(Nc3cnc(CNC(C)C)cn3)s2)nc(SC2CCCCC2)n1` [Example 96, 5-[2-(cyclohexylthio)-6-methyl-4-pyrimidinyl]-2-[5-(isopropylamino)methyl-2-pyrazinyl]amino-1,3-thiazole]: the concentration for half-maximal inhibition (IC50) against cyclin D2-Cdk4 was determined as 5.8 nM; at cyclin A-Cdk2, 600 nM; at cyclin H-Cdk7, 160 nM.
Turning to `Cc1cc(-c2cnc(Nc3cnc(CN4CCN(C)CC4)cn3)s2)nc(Sc2ccccc2Cl)n1` [Example 109, 5-[2-(2-chlorophenylthio)-6-methyl-4-pyrimidinyl]-2-[5-(4-methyl-1-piperazinyl)methyl-2-pyrazinyl]amino-1,3-thiazole], the IC50 against cyclin D2-Cdk4 was 5.7 nM; on cyclin A-Cdk2 it was 1000 nM; at cyclin H-Cdk7 it was 280 nM.
For the molecule `Cc1cc(-c2cnc(Nc3ccc(CN4CCC[C@H]4CO)cn3)s2)nc(NC2CCCCC2)n1` [Example 137, (2S)-5-[2-(cyclohexylamino)-6-methyl-4-pyrimidinyl]-2-[5-(2-hydroxymethyl-1-pyrrolidinyl)methyl-2-pyridyl]amino-1,3-thiazole], the figures for the IC50 on cyclin D2-Cdk4, at cyclin A-Cdk2 and on cyclin H-Cdk7 were 7.2 nM, 4500 nM and 1200 nM, respectively.
